Data on 6 compounds can be found in US20060111366A1, “Pharmaceutical use of substituted amides” (Novo Nordisk A/S, priority 2003, published 2006).

Structures are written as SMILES.

T1 sequence (P28845 whole entry): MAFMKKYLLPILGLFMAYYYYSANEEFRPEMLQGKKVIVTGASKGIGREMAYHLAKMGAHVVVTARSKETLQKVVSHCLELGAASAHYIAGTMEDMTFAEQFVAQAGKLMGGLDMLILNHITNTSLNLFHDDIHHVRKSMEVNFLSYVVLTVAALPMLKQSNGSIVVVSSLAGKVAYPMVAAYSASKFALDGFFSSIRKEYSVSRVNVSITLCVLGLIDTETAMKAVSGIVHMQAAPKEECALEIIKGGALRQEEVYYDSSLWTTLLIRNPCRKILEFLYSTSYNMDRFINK

This assay addresses T1, h-11βHSD1 (Homo sapiens, UniProt P28845).
T1 construct: made in house
Nature of the assay: 11βHSD1 enzyme assay (scintillation proximity assay, conversion of 3H-cortisone to 3H-cortisol). Format: biochemical. As to conditions: extract of yeast transformed with h-11βHSD1; 120 nM 3H-cortisone, 4 mM β-NADPH, 60 min at 30° C. Here is the method: ^3H-cortisone and anti-rabbit Ig coated scintillation proximity assay (SPA) beads were purchased from Amersham Pharmacia Biotech, β-NADPH was from Sigma and rabbit anticortisol antibodies were from Fitzgerald. An extract of yeast transformed with h-11βHSD1 (Hult et al., FEBS Lett., 441, 25 (1998)) was used as the source of enzyme. The test compounds were dissolved in DMSO (10 mM). All dilutions were performed in a buffer containing 50 mM TRIS-HCl (Sigma Chemical Co), 4 mM EDTA (Sigma Chemical Co), 0.1% BSA (Sigma Chemical Co), 0.01% Tween-20 (Sigma Chemical Co) and 0.005% bacitracin (Novo Nordisk A/S), pH=7.4. Optiplate 96 wells plates were supplied by Packard. The amount of ^3H-cortisol bound to the SPA beads was measured on TopCount NXT, Packard.
h-11βHSD1, 120 nM ^3H-cortisone, 4 mM β-NADPH, antibody (1:200), serial dilutions of test compound and SPA particles (2 mg/well) were added to the wells. The reaction was initiated by mixing the different components and was allowed to proceed under shaking for 60 min at 30° C. […] Data was analysed using GraphPad Prism software.
Consider `CN(C(=O)c1ccc2cc[nH]c2c1)C1CCCCC1` [(VII) 2, 1H-Indole-6-carboxylic acid cyclohexyl-methyl-amide], for which 118 nM corresponded to half-maximal inhibition (IC50). For `CCCc1c(C(=O)N(C)C2CCCCC2)cnn1-c1ccc(Cl)cc1` [(III) 1, 1-(4-Chloro-phenyl)-5-propyl-1H-pyrazole-4-carboxylic acid cyclohexyl-methyl-amide], the IC50 (commonly the concentration needed to halve the response being measured) came out at 40 nM.

Consider `CN1CCC(N(C)C(=O)CCCOc2ccccc2)CC1` [(I) 2, N-Methyl-N-(1-methyl-piperidin-4-yl)-4-Phenoxy-butyramide], for which 120000 nM corresponded to half-maximal inhibition (IC50). Consider `CC1Oc2c(C(=O)N(C)C3CCCCC3)cccc2C1C` (stereo not drawn) [(VI) 1, 2,3-Dimethyl-2,3-dihydro-benzofuran-7-carboxylic acid cyclohexyl-methyl-amide], for which 6 nM corresponded to half-maximal inhibition (IC50).

`CN(C(=O)CCCOc1ccc2c(c1)OCO2)C1CCCCC1` [(I) 1, 4-(Benzo[1,3]dioxol-5-yloxy)-N-cyclohexyl-N-methyl-butyramide] showed an IC50 of 560 nM.

In turn, `CN(C(=O)c1ccc2[nH]cnc2c1)C1CCCCC1` [(V) 1, 1H-Benzoimidazole-5-carboxylic acid cyclohexyl-methyl-amide] had an IC50 of 45 nM.
